Results from patent publication US9682050B2, “Methods of treating lactose intolerance” (Nogra Pharma Limited, priority 2012, dated 2017).

Tests used:
[1] = tested on: PPAR semi deficient epithelial cells; experiment: LCT gene expression in PPAR knock down (ShPPAR) Caco-2 cells; assay type: cell-based, human
Experimental: (§1) Transcripts of genes were estimated by quantitative PCR (qPCR) in order to confirm microarrays results. 1 μg of total RNA was reverse-transcripted into cDNA using the High Capacity cDNA Achive kit (Applied biosystems). qPCR was performed using an ABI PRISM 7000 sequence detection system (Applied Biosystem). Primer pairs for each transcript were chosen with qPrimer depot software. Quantification of qPCR signals was performed using ΔCt relative quantification method using GAPDH as a reference gene. The values were represented in terms of relative quantity of mRNA level variation or fold increase compared to control conditions.
PPARγ knock down IECs were obtained using the pSUPER.retro system (OligoEngine). Forward and reverse target sequences corresponding to nucleotides 105-123 of the human PPARg mRNA (5-′-GCCCTTCACTACTGTTGAC-3′ (SEQ ID NO: 1)) were cloned into the BglII/XhoI restriction sites of the pSUPERretro vector (pRS) giving the ShPPAR construct. A negative control pRS plasmid containing the sequence 5′-ACGCTGAGTACTTCGAAAT-3′ (SEQ ID NO: 2) targeted against the luciferase gene was also generated (ShLuc construct). Both constructions were transfected in Caco-2 cells using Nucleofector technology from Amaxa Biosystems, according to the manufacturer's protocol. […] The silencing of PPARg expression was checked by quantitative RT-PCR and western-blot analysis. […]

[2] = tested on: human lactase gene; experiment: Lactase mRNA expression (qPCR) in Caco-2 cells stimulated with PPAR agonists; assay type: cell-based; details: for LCT gene expression in Caco2 cells: summary statement
Experimental: Caco-2 colonic adenocarcinoma cell lines were used. Caco-2 cells grew in Dulbecco's modified Eagle's medium (DMEM, Invitrogen, Cergy-Pontoise, France) supplemented with 20% foetal calf serum (FCS, Dutscher, Brumath, France), 1% penicillin-streptomycin (5 ml/l) (Invitrogen) and 1% non-essential amino acids (5 ml/l) (Invitrogen). All cell lines were cultured as confluent monolayers at 37° C. in a controlled, 5% CO2 atmosphere. Each week, the confluent monolayer were trypsinized (Invitrogen) and then replated after a 1:10 dilution. For the stimulation experiments, cells were placed in 6-well plates at a density of 1×10^6 cells per well. Serum deprivation was used 16 hours prior to stimulation in order to synchronize the cells.
The cells were treated with Compound 34 (1 mM and 30 mM), 5-ASA (30 mM), or pioglitazone (1 μM). When necessary, the vehicle DMSO (Sigma) is used as control (Ctrl). After 24 hrs of stimulation, the wells were rinsed three times with sterile PBS at 4° C. The cells were then lysed with lysis buffer (RA1, Macherey-Nagel) containing 1% β-mercaptoethanol. The plates were frozen at −80° C. for subsequent RNA extraction. A time course experiment consisting of stimulation of Caco-2 cells by compound 34, 1 mM during 6 hrs and 12 hrs was also done in order to compare gene expression according treatment duration.
Total RNA were extracted with a Nucleospin RNA kit (Macherey-Nagel, Hoerdt, France). After RNAse inactivation, the total RNA was cleaned of trace genomic DNA via a DNAse treatment and eluted in RNAse-free, DEPC-free water. The purity of the RNA will be evaluated by UV spectroscopy on a Nanodrop system from 220 to 350 nm. Before microarray experiment, RNAs were also profiled on an Agilent 2100 bioanalyzer. One μg of total RNA were used in the microarray analysis (minimum concentration: 50 ng/μl).
as §1
Each experiment has been done at least twice. The lactase gene expression was first confirmed to be stimulated by compound 34 at two different concentrations (1 mM, fold increase 4.78, p=0.0002; 30 mM, fold increase 7.9, p=0.0006) (FIG. 4A).

| Structure (SMILES) | LCT gene expression in PPAR semi deficient epithelial cells [1] | lactase gene expression, fold increase ([2]; 30 mM, 24 hrs, Caco-2 cells) [fold] | LCT gene expression in Caco2 cells [2] | lactase mRNA expression, fold increase ([2]; 1 μM, 24 hrs, Caco-2 cells) [fold] |
| --- | --- | --- | --- | --- |
| Nc1ccc(O)c(C(=O)O)c1 [5ASA, 5-amino salicyclic acid] | kept their upregulatory effects | 12.69 | enhance LCT gene expression |  |
| CCc1ccc(CCOc2ccc(CC3SC(=O)NC3=O)cc2)nc1 (centres unmarked) [pioglitazone] |  |  | enhance LCT gene expression | 11.76 |
